Assay: Specificity of reporter dye (compound 8) towards metal ions and amino acids
Conditions: 1 mM metal ions, 5 mM H2O2 and amino acids, phosphate buffer pH 7.2; all tested except cysteine
Experimental: FIG. 5C illustrates the sensitivity of sensing dye, (compound 8) in presence of different analyte such as 1. Phosphate buffer (pH=7.2), 1 mM of 2. Na+, 3. K+, 4. Ca2+, 5. Fe2+, 6. Zn2+, and 5 mM of 7. H2O2, 8. His, 9. Ser, 10. Lys, 11. Val, and 12. Cys. Each intensity is normalized from the intensity of compound 8 before treatment with respective analytes.
The specificity of reporter dye was checked towards thiol disulfide exchange reaction and treated the reporter dye (compound 8) with different metal ions and amino acids.

With “thiopyridyl conjugated blocked 6′-O propargyl fluorescein [compound 8]” the “reaction with metal ions and amino acids (fluorescence)” value was “No reaction was observed”.

Reference: patent US12216121B2, “Methods and compositions for spacial and temporal measurement of catalytic activity” (The University of Chicago, priority 2017, dated 2025)
